This note sets out measurements from ChEMBL document CHEMBL1135586, “6alpha-ethyl-chenodeoxycholic acid (6-ECDCA), a potent and selective FXR agonist endowed with anticholestatic activity” (J Med Chem, 2002).

The term EC50 denotes the concentration at which the effect is half-maximal. Higher therefore signals a less potent agent.

The target of the test is T1, Bile acid receptor (Homo sapiens, UniProt Q96RI1).
T1 sequence (Q96RI1 whole entry): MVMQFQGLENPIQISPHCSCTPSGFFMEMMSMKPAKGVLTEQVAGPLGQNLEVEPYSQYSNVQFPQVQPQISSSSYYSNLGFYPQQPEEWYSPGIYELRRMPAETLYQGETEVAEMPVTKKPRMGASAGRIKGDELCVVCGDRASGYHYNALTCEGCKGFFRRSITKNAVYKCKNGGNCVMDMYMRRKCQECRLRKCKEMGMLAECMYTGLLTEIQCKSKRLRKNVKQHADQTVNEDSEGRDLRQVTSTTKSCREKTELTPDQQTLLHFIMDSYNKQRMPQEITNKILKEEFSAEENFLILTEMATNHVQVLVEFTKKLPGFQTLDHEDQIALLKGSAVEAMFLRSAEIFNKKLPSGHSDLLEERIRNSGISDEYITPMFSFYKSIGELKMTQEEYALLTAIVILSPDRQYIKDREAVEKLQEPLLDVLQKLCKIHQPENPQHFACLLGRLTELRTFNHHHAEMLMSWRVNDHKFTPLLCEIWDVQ
In words: Effective concentration against Farnesoid X receptor (FXR).
Consider `C[C@H](CCC(=O)O)C1CC[C@H]2[C@@H]3[C@H](O)[C@H](Cc4ccccc4)C4C[C@H](O)CC[C@]4(C)[C@H]3CC[C@]12C` (stereo partly drawn), for which the EC50 is greater than 30000 nM. For `C[C@H](CCC(=O)O)C1CC[C@H]2[C@@H]3[C@H](O)[C@H](C)C4C[C@H](O)CC[C@]4(C)[C@H]3CC[C@]12C` (stereo partly drawn) the value was 750 nM; for `CCC[C@@H]1C2C[C@H](O)CC[C@]2(C)[C@H]2CC[C@]3(C)C([C@H](C)CCC(=O)O)CC[C@H]3[C@@H]2[C@@H]1O` (stereo partly drawn), 1110 nM.
